Entries after “also recorded” stand apart in the source; their conditions may differ. Where two headings read alike, the source gives them in different places.
Experiments:
[1] = tested on: K48 polyubiquitinated proteins; test: Western blot of drug-treated worm lysate with K48-linkage specific polyubiquitin antibody; format: cell-based, Schistosoma mansoni; settings: worm lysate after 48 hr of treatment
Description: For drug treatment studies, 10 male adult worms (single or paired with females) were supplemented with either 0.1% DMSO or inhibitor (0.1% DMSO final). […]. After 48 hr, male parasites were separated from females using 0.25% tricaine in Basch Media 169, flash frozen in liquid nitrogen, and stored at −80°C until further processing. Male worm samples were homogenized with a pestle in 50 μL lysis buffer containing 2X sample buffer [0.471 M Tris (pH 6.7 with phosphoric acid), 20% glycerol, 5% SDS), protease inhibitor cocktail (Roche, cOmplete Mini, EDTA-free Tablets) and 10 mM DTT. The lysates were then sonicated on high for 5 min (30 sec on, 30 sec off) using a Bioruptor UCD-200. Lysates were centrifuged for 5 min at 10,000 g to remove debris. Total protein was measured using the Detergent Compatible Bradford Assay (Pierce). 50 μg of protein samples denatured in SDS Sample buffer (95°C for 5 min) were separated on a Bio-Rad 4–20% TGX Stain-Free gel along with Precision Plus Protein Dual Color Standards (Bio-Rad) as a marker. Proteins were then transferred to a nitrocellulose membrane (Bio-Rad). The membrane was blocked in a 1:5 solution of Li-Cor Odyssey Blocking buffer in PBST for 1 hr before being immunoblotted overnight at 4°C with 1:500 K48-linkage Specific Polyubiquitin Antibody (Cell Signaling Technology, 4289S) and 0.01 μg/mL mouse anti-actin antibody (1:10,000) (Developmental Studies Hybridoma Bank, JLA20) diluted in a 1:5 solution of Li-Cor Odyssey Blocking buffer in PBST. The membrane was washed 3x in TBST and then incubated in 1:5 Li-Cor Odyssey Blocking buffer containing the secondary antibodies (1:10,000 Li-Cor, 925–68071, goat anti-rabbit IRDye 680 RD, and 1:20,000 Li-Cor, 925–32280, goat anti-mouse IgM IRDye 800CW) for 1 hr at RT. The blot was washed in TBST 3x before being imaged on a LiCor Odyssey Infrared Imager.

adult S. mansoni worms [2] = test: Treatment of adult S. mansoni worms in culture with inhibitors (attachment to tissue culture substrate, morphology; single 10 μM and dose-response EC50); format: cell-based, Schistosoma mansoni; settings: for effect on adult parasites: inhibitors of human targets; for EC50: read-out: S. mansoni EC50
Description: Adult S. mansoni (NMRI strain) (6–7 weeks post-infection) worms were harvested from infected female Swiss Webster mice by hepatic portal vein perfusion using 37°C DMEM (Mediatech, Manassas, VA), 8% Horse Serum, and heparin.
Roughly 5 adult worm pairs were placed in 3mL Basch medium in a 12-well culture vessel, and incubated at 37°C, 5% CO2 for the length of the experiment. Compound was administered at D0, D1, and D2, media and drug refreshed every 24 hr. Worms were then allowed to remain in culture until D5, where a final assessment of worm attachment to tissue culture substate was made by light microscopy. Observations on movement and morphology were also recorded. A negative control (0.1% DMSO) and positive control (PZQ; 10 μM in 0.1% DMSO) were included in each experiment, and each experiment was repeated in triplicate for validation. For compounds that caused complete detachment in replicate experiments, the treatment was expanded to three concentrations (10 μM, 5 μM, and 1 μM) following the same treatment schedule and controls as detailed above. […] Each titration experiment was performed in triplicate according to the treatment regimen described above, using DMSO and PZQ as appropriate controls. Morphologies and motility were assessed by light microscopy, and dose-response curves were calculated using the primary readout of parasite attachment to tissue culture substrate in GraphPad Prism. […]
[…] Values were calculated using Prism.

H. sapiens p97 (P55072) = target: T1, H. sapiens p97 (P55072) (Homo sapiens, UniProt P55072); test: p97 ATPase activity, ATP consumption assay (Kinase-Glo), IC50 / counter screen; format: biochemical
T1 construct: 6xHis (C); made in house; host or cells: E. coli BL21 (DE3)
T1 sequence (P55072 whole entry): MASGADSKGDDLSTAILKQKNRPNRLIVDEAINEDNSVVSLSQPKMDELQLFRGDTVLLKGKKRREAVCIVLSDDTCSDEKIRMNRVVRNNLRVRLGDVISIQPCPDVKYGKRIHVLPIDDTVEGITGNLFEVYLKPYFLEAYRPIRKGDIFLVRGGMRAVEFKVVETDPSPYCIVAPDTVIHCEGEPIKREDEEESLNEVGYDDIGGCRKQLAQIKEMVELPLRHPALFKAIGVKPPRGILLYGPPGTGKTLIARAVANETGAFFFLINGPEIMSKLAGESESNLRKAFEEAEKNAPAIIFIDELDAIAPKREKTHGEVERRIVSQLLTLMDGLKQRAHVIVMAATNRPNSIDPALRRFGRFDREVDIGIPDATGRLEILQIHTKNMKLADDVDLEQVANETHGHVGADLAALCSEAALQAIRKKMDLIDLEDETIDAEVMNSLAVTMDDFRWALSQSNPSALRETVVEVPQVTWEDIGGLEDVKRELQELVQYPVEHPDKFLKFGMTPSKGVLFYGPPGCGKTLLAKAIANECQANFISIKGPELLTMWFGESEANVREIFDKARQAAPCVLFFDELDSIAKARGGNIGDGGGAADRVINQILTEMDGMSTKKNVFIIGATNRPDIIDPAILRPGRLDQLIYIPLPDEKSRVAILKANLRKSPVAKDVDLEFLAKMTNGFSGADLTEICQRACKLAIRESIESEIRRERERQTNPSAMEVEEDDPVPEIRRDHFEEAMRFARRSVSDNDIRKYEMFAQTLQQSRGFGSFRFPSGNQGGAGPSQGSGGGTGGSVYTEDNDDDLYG

[3] = target: S. mansoni p97 (Smp_018240) (Schistosoma mansoni, UniProt G4M0P7); test: biochemical; settings: for Fold Selectivity: H. sapiens vs S. mansoni p97 IC50
Chain of S. mansoni p97 (Smp_018240) (G4M0P7 entry or part of it): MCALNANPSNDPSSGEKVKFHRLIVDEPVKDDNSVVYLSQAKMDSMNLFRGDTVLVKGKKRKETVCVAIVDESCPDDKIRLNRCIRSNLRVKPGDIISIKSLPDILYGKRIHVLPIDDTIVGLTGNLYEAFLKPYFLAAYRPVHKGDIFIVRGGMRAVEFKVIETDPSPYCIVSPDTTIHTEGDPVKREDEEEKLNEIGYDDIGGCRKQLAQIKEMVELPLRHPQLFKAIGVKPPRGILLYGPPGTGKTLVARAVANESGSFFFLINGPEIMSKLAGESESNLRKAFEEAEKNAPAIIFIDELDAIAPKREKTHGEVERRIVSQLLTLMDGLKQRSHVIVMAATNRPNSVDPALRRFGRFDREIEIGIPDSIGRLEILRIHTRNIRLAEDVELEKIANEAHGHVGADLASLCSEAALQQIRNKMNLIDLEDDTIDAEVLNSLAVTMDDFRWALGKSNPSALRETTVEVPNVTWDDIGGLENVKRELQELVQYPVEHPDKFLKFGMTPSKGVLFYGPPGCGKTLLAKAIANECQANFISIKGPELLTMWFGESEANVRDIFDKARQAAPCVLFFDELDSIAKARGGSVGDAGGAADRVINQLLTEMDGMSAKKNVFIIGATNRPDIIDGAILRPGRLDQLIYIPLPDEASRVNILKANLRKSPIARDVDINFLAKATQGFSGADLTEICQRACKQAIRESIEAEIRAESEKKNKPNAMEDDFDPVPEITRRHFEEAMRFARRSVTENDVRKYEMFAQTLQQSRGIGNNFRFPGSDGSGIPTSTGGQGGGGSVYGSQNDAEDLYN
Description: E. coli BL21 (DE3) containing the desired plasmid were grown in LB medium containing […] kanamycin while shaking at 37 °C to an OD600 of 0.6–0.8. The temperature was reduced to 18°C and 0.8 mM isopropyl-beta-D-thiogalactopyranoside (IPTG) was added. The bacterial culture was harvested 16hr later by centrifugation. The resulting pellet was suspended in 60 mL lysis buffer/2L bacterial culture [20 mM Tris (pH 7.4), 300 mM NaCl, 5 mM MgCl2, 20 mM imidazole, 1% Triton X-100, 1 mg/mL lysozyme, 10% glycerol, 3 mM β-mercaptoethanol, 0.2 mM PMSF, and protease inhibitor tablet (Roche)]. […] The lysate was centrifuged at 40,000 × rpm for 35 min at 4°C. The resulting supernatant was incubated with Ni-NTA beads equilibrated to lysis buffer for 1 hr at 4°C before being loaded onto a gravity column. The bead bed was washed with wash buffer [20 mM Tris (pH 7.4), 500 mM NaCl, 5 mM MgCl2, 40 mM imidazole, 0.05% Triton X-100, 10% glycerol, 3 mM β-mercaptoethanol, 0.2 mM PMSF, 0.001 mg/mL Aprotinin, and 0.002 mg/mL Leupeptin], then eluted in the same buffer with 250 mM imidazole in wash buffer. Fractions containing p97 were concentrated using Pierce Protein Concentrators (100k MWCO) and loaded onto a gel-filtration column (Superdex 200PG) and eluted using SEC buffer [20 mM Tris (pH 7.4), 180 mM NaCl, 5 mM MgCl2, and 10% glycerol] at 0.5 mL/min flow rate on a BioRad NGC Chromatography System. Fractions corresponding to an apparent molecular weight of 500 – 600 kDa were collected and analyzed by 4–20% SDS/PAGE to evaluate purity. Concentration was determined using a BSA standard. Fractions containing purified protein were aliquoted, snap frozen in liquid nitrogen, and stored at −80 °C until use.
For manual ATP consumption assays, 1 μM p97 was incubated with 1% DMSO or inhibitor (1% DMSO final) in assay buffer [50 mM Tris (pH 7.5), 20 mM MgCl2, 1 mM EDTA, 0.5 mM tris(2-carboxyethyl)phosphine (TCEP)] for 5 minutes prior to the addition of 20 μM ATP in a 384-well plate for a total reaction volume of 10 μL, and a final concentration of 500nM enzyme and 10 μM ATP. The reaction was allowed to proceed for 50 minutes at room temperature before adding equivalent volume of Kinase-Glo Plus reagent (Promega), and a further incubation of 10 minutes in the dark.
IC50 values were calculated using GraphPad Prism.

adult S. mansoni worms [4] = tested on: adult S. mansoni worms; design: method as in PMID 32973031; settings: schistosomes in vitro; cited from earlier work
HepG2 cells = test: HepG2 cytotoxicity assay (Cell Titer Glo 2.0); format: cell-based, human
Description: HepG2 cells (ATCC) were plated at 2500 cells/well in 50 μL/well, dispersing cells using a 25g needle to break up clumps prior to plating. Plates were incubated for 24hr at 37C, 5% CO2. Following 24hr, 50 μL media containing 0.6% DMSO was added to a set of wells on one plate. The plate and Cell Titer Glo 2.0 reagent were brought to RT. A T=0 read was taken by adding 40 μL reagent/well, rocking the plate at 100 rpm for 2 min, then reading luminescence ~10 min later. […] 50 μL 2x concentrated compound was added to wells containing cells in 50 μL 24 hr after plating. Concentrations were tested in triplicate at following values: 30, 10, 3.3, 1.1, 0.37, 0.12, and 0.04 μM. Plates were incubated for 72 hr at 37C, 5% CO2. Following equilibration to room temperature, 40 μL undiluted reagent was added to each well, the plate rocked at 100 rpm for 2 min and then read for luminescent signal ~10 min later.
Values are plotted in excel and the 50% point determined by interpolation. Values were revisualized in Prism.

[5] = recombinant enzyme, Kinase-Glo, Fig. 3D
[6] = recombinant enzyme, Kinase-Glo, Fig. 3D, read-out: S. mansoni (IC50)

| Structure (SMILES) | accumulation of K48 polyubiquitinated proteins by western blot [1] | effect on adult parasites (adult S. mansoni worms [2]; 10 μM) | IC50 (H. sapiens p97 (P55072); [5]) | IC50 [3, 6] | parasite death in vitro (adult S. mansoni worms [4]) | also measured |
| --- | --- | --- | --- | --- | --- | --- |
| CC1(C)C(N(O)C(=O)Nc2ccc(Cl)cc2)N(c2ccc(Cl)cc2)C(=O)N1CC(=O)N/N=C/C=C/c1ccc([N+](=O)[O-])o1 (stereo not shown) [Eeyarestatin I, reference compound] | did not see significant increases in K48 abundance | effective |  |  |  |  |
| CC(C)N1CCN(CCNC2CCN(c3cccc(-c4cc5cc(F)ccc5[nH]4)c3)CC2)CC1 [UPCDC-30245, reference compound] | did not see significant increases in K48 abundance | effective | 0.97 ± 0.067 µM | 4.1 µM |  | selectivity between schistosome and human p97 [3]: selective in favor of the human enzyme; also recorded: decreased potency |
| CC(C)C[C@H](NC(=O)[C@H](Cc1ccccc1)NC(=O)c1cnccn1)B(O)O [bortezomib] |  |  |  |  | killed |  |
| Cc1cc(OCc2nnc(SC3CCCC3)n2-c2cccnc2)ccc1-c1ccc(S(C)(=O)=O)cc1 [NMS-873] | accumulation of proteins targeted for proteasome-mediated degradation |  |  | 0.23 ± 0.075 µM | sub-micromolar |  |
| c1ccc(CNc2nc(NCc3ccccc3)c3ccccc3n2)cc1 [DbeQ, reference compound] | did not observe the same accumulation | activity on the worms | 0.91 ± 0.39 µM | 12 µM |  |  |
| COc1cccc2c(NCc3ccccc3)nc(-n3c(N)nc4ccccc43)nc12 [ML240, reference compound] | did not observe the same accumulation | killed parasites quickly | 0.33 ± 0.061 µM | 0.066 ± 0.0097 µM |  | selectivity for the schistosome enzyme over its human counterpart [3]: ~ 5 fold |
| Cc1cc2c(C(N)=O)cccc2n1-c1nc2c(c(NCc3ccccc3)n1)COCC2 [CB-5083, reference compound] | accumulation of proteins targeted for proteasome-mediated degradation |  |  |  | sub-micromolar | EC50 (adult S. mansoni worms [2]; worms, Suppl. Fig. 11E): 0.36 µM; GI50 (HepG2 cells; HepG2, 72 hr, 50% growth inhibition normalized to time = 0, Suppl. Fig. 11A, read-out: GI50): 0.31 µM; IC50 (HepG2 cells; HepG2, 72 hr, 50% growth inhibition relative to control, Suppl. Fig. 11A, read-out: IC50): 0.41 µM; GI50 (HepG2 cells; HepG2, Suppl. Fig. 11E, read-out: HepG2 GI50): 0.31 µM; IC50 (HepG2 cells; HepG2, Suppl. Fig. 11E, read-out: HepG2 IC50): 0.41 µM; Fold Selectivity ([3]; Suppl. Fig. 11D): 2.0; selectivity for the schistosome enzyme over its human counterpart ([3]; S. mansoni vs H. sapiens p97 IC50): ~ 2 fold |
| O=C(C#Cc1ccncc1)Nc1ccc2oc(-c3ccccn3)nc2c1 [Compound 739, N-(2-(pyridin-2-yl)benzo[d]oxazol-5-yl)-3-(pyridin-4-yl)propiolamide] | accumulation of K48 polyubiquitin moieties |  |  |  |  | IC50 (H. sapiens p97 (P55072); Hs p97, 100 μM – 1 nM, Suppl. Fig. 9C): 0.32 ± 0.026 µM; time to detachment of adult worms in culture (adult S. mansoni worms [2]; 10 μM): ≤ 24 h; EC50 (adult S. mansoni worms [2]; Schistosoma mansoni, adult parasites, fraction of worms attached, 72 hours of drug treatment, in culture until D5, 50 μM - 10 nM, Suppl. Fig. 9C): 1.3 µM; effect on adult worms (adult S. mansoni worms [2]; benzoxazole propiolamide series, 10 μM, treated 72 hours, monitored until D5): death of the parasites; GI50 (HepG2 cells; Homo sapiens, HepG2, 72 h): 0.85 µM; IC50 (HepG2 cells; Homo sapiens, HepG2, 72 h): 1.2 µM; GI50 (HepG2 cells; Homo sapiens, HepG2, read-out: HepG2 GI50): 0.85 µM; IC50 (HepG2 cells; Homo sapiens, HepG2, read-out: HepG2 IC50): 1.2 µM; Fold Selectivity ([3]; Suppl. Fig. 9C): 2.1; IC50 ([3]; schistosome p97 enzyme, read-out: IC50): 0.15 µM |

— doi:10.1101/2025.03.14.643303, “A genome-scale drug discovery pipeline uncovers new therapeutic targets and a unique p97 allosteric binding site in Schistosoma mansoni” (bioRxiv, 2025)
